Ends that are not written are not given here.

These results are taken from PMC6379965, “Expression and activity of the calcitonin receptor family in a sample of primary human high-grade gliomas” (BMC Cancer, 2019).

The test system of assay [1] is SB2b cell line. In words: cAMP accumulation, αCGRP and AM, SB2b. It is filed as cell-based, human. The conditions noted are these: 30 min, 3 to 4 independent experiments in triplicate. As to the method: (§1) Primary patient high-grade glioma (HGG) cell lines, in vitro surrogates of glioblastoma, were developed by QIMR-Berghofer Medical Research Institute (Brisbane, Australia) and represent 3 distinct GBM subtypes: SB2b and PB1 (classical), JK2 (proneural) and WK1(mesenchymal), who supplied these directly for this study. GBM cell lines were cultured as adherent monolayers on matrigel (BD Biosciences)-coated flasks using StemPro NSC SFM serum free cell culture medium (Thermo Fisher Scientific) supplemented with 20 ng/ml EGF and 20 ng/ml FGFb, 1% D-glutamine and 1% of penicillin/ streptomycin (further referred as StemPro complete medium).
GBM cell lines were seeded at 38000 cells/well (SB2b) or 35,000 cells/well (PB1, JK2 and WK1) in 96-well matrigel-coated plates and incubated for 24 h at 37°C, 5% CO2 in humidified incubator in StemPro complete medium. Media was replaced with stimulation buffer (phenol red free F12 media, 0.1% BSA, 0.5 mM IBMX, pH 7.4). […] Cells were lysed (0.3% Tween 20, 5 mM Hepes, 0.1% BSA, pH 7.4) and 5 μl of cell lysate from each well was transferred to a corresponding well of 384-well optiplate. […] Data were analysed by three-parameter logistic curve and are presented as percentage of 10^− 5 M forskolin response.

Another assay has as its system CTR. The conditions noted are these: receptor CTR; ref [10], [11], [38]; cited from earlier work.
For the next assay, the system named is AMY1 (CTR + RAMP1). As to conditions: receptor AMY1, CTR + RAMP1; ref [10], [11], [38]; cited from earlier work.
Another assay deals with AMY3 (CTR + RAMP3). The conditions noted are these: receptor AMY3, CTR + RAMP3; ref [10], [11], [38]; cited from earlier work.
The test system of a further assay is CGRP (CLR + RAMP1). The conditions noted are these: receptor CGRP, ref [10], [11], [38]; cited from earlier work.
In another assay the test system is AM1 (CLR + RAMP2). The conditions noted are these: receptor AM1, CLR + RAMP2; ref [10], [11], [38]; cited from earlier work.
Another assay deals with AM2 (CLR + RAMP3). The conditions noted are these: receptor AM2, CLR + RAMP3; ref [10], [11], [38]; cited from earlier work.
The subject of assay [2] is WK1 cell line. Put plainly: cAMP accumulation, CTR agonists, WK1. It is filed as cell-based, human. The conditions noted are these: 30 min, agonist 10^-12-10^-6 M, 3 to 5 independent experiments in triplicate. How it is done: as §1, with “medium). Cells were cultured in 5% CO2 / 95% humidified air at 37 °C.” for “medium).”
GBM cell lines were seeded at 38000 cells/well (SB2b) or 35,000 cells/well (PB1, JK2 and WK1) in 96-well matrigel-coated plates and incubated for 24 h at 37°C, 5% CO2 in humidified incubator in StemPro complete medium. Media was replaced with stimulation buffer (phenol red free F12 media, 0.1% BSA, 0.5 mM IBMX, pH 7.4). […] Intracellular cAMP levels in the wells were determined using Lance Ultra cAMP assay kit (Perkin Elmer) according to the manufacturer’s instructions and detected using an Envision multilabel 2103 reader. […] Data were analysed by three-parameter logistic curve and are presented as percentage of 10^− 5 M forskolin response.
A general note: Changes in cAMP serve as a functional read-out for many G protein-coupled receptors.

Another assay concerns JK2 cell line. Put plainly: cAMP accumulation, CTR agonists, JK2. In kind it is cell-based, human. As to conditions: 30 min, 3 to 5 independent experiments in triplicate. As to the method:
as §1, with “medium). Cells were cultured in 5% CO2 / 95% humidified air at 37 °C.” for “medium).”
(§2) GBM cell lines were seeded at 38000 cells/well (SB2b) or 35,000 cells/well (PB1, JK2 and WK1) in 96-well matrigel-coated plates and incubated for 24 h at 37°C, 5% CO2 in humidified incubator in StemPro complete medium. Media was replaced with stimulation buffer (phenol red free F12 media, 0.1% BSA, 0.5 mM IBMX, pH 7.4). […] Cells were lysed (0.3% Tween 20, 5 mM Hepes, 0.1% BSA, pH 7.4) and 5 μl of cell lysate from each well was transferred to a corresponding well of 384-well optiplate. Intracellular cAMP levels in the wells were determined using Lance Ultra cAMP assay kit (Perkin Elmer) according to the manufacturer’s instructions and detected using an Envision multilabel 2103 reader. Raw RFU values were converted using a cAMP standard curve to give absolute cAMP concentrations. Data were analysed by three-parameter logistic curve and are presented as percentage of 10^− 5 M forskolin response.

For assay [3], the system named is PB1 cell line. In words: cAMP accumulation, CTR agonists, PB1. In kind it is cell-based, human. As to conditions: 30 min, 3 to 5 independent experiments in triplicate. As to the method:
as §1, with “medium). Cells were cultured in 5% CO2 / 95% humidified air at 37 °C.” for “medium).”
as §2

The subject of assay [4] is SB2b cell line. Put plainly: Ca2+ mobilization, SB2b. In kind it is cell-based, human. As to conditions: Fluo4-AM, FlexStation, 37 °C, pH 7.4, peak RFU, ATP 10 μM, ionomycin 1 μM, representative experiment, 3 replicates. Background: Calcium flux is commonly read through the fluorescence of an indicator in the cells.
Description: (§4) Primary patient high-grade glioma (HGG) cell lines, in vitro surrogates of glioblastoma, were developed by QIMR-Berghofer Medical Research Institute (Brisbane, Australia) and represent 3 distinct GBM subtypes: SB2b and PB1 (classical), JK2 (proneural) and WK1(mesenchymal) [37], who supplied these directly for this study. GBM cell lines were cultured as adherent monolayers on matrigel (BD Biosciences)-coated flasks using StemPro NSC SFM serum free cell culture medium (Thermo Fisher Scientific) supplemented with 20 ng/ml EGF and 20 ng/ml FGFb, 1% D-glutamine and 1% of penicillin/ streptomycin (further referred as StemPro complete medium).
(§5) GBM cell lines were seeded at 38000 cells/well (SB2b) or 35,000 cells/well (PB1 and WK1) in 96-well matrigel-coated plates and incubated for 24 h at 37 °C, 5% CO2 in humidified incubator in StemPro complete medium. […] Cells were incubated at 37°C for 60 min before ligand addition and detection of Ca^2+ mobilisation in a FlexStation 3 (Molecular Devices).
The subject of assay [5] is WK1 cell line. In words: Ca2+ mobilization, WK1. In kind it is cell-based, human. As to conditions: Fluo4-AM, FlexStation, 37 °C, pH 7.4, peak RFU, ATP 10 μM, ionomycin 1 μM, representative experiment, 3 replicates.
Description: as §4, §5
For assay [6], the system named is PB1 cell line. In words: Ca2+ mobilization, PB1. In kind it is cell-based, human. As to conditions: Fluo4-AM, FlexStation, 37 °C, pH 7.4, peak RFU, ATP 10 μM, ionomycin 1 μM, representative experiment, 3 replicates.
Description: as §4, §5
Assay [7] has as its system mouse thymic lymphoma models. As to conditions: CTR expressed as an amylin receptor, ref [18], [19]; cited from earlier work. The text has this: (§3) Research on the role of CTR expression in cancer has been fragmentary and any role for CTR in cancer pathology seems to be entirely dependent on the cancer type. For instance, in human breast cancer model cell lines with high constitutive ERK (Extracellular Signal Regula ...

In assay [8] the test system is MDA-MB-231 xenograft tumours. As to conditions: ref [13]; cited from earlier work.
Text: as §3

Assay [9] has as its system human prostate cancer cell line PC3. The conditions noted are these: ref [14], [15]; cited from earlier work.
Text: as §3

For the molecule `CC[C@H](C)[C@H](NC(=O)[C@H](CCC(N)=O)NC(=O)[C@H](Cc1c[nH]cn1)NC(=O)[C@H](C)NC(=O)[C@H](CC(C)C)NC(=O)[C@H](CCCCN)NC(=O)[C@H](CCC(N)=O)NC(=O)[C@@H](NC(=O)[C@@H](NC(=O)[C@@H]1CSSC[C@H](NC(=O)CNC(=O)[C@H](Cc2ccccc2)NC(=O)[C@H](CO)NC(=O)[C@H](CCCNC(=N)N)NC(=O)[C@H](CC(C)C)NC(=O)CNC(=O)[C@H](CCC(N)=O)NC(=O)[C@H](Cc2ccccc2)NC(=O)[C@H](CC(N)=O)NC(=O)[C@H](CC(N)=O)NC(=O)[C@H](CCSC)NC(=O)[C@H](CO)NC(=O)[C@H](CCC(N)=O)NC(=O)[C@H](CCCNC(=N)N)NC(=O)[C@@H](N)Cc2ccc(O)cc2)C(=O)N[C@@H](CCCNC(=N)N)C(=O)N[C@@H](Cc2ccccc2)C(=O)NCC(=O)N[C@@H]([C@@H](C)O)C(=O)N1)[C@@H](C)O)C(C)C)C(=O)N[C@@H](Cc1ccc(O)cc1)C(=O)N[C@@H](CCC(N)=O)C(=O)N[C@@H](Cc1ccccc1)C(=O)N[C@H](C(=O)N[C@@H](CC(=O)O)C(=O)N[C@@H](CCCCN)C(=O)N[C@@H](CC(=O)O)C(=O)N[C@@H](CCCCN)C(=O)N[C@@H](CC(=O)O)C(=O)N[C@@H](CC(N)=O)C(=O)N[C@H](C(=O)N[C@@H](C)C(=O)N1CCC[C@H]1C(=O)N[C@@H](CCCNC(=N)N)C(=O)N[C@@H](CO)C(=O)N[C@@H](CCCCN)C(=O)N[C@H](C(=O)N[C@@H](CO)C(=O)N1CCC[C@H]1C(=O)N[C@@H](CCC(N)=O)C(=O)NCC(=O)N[C@@H](Cc1ccc(O)cc1)C(N)=O)[C@@H](C)CC)C(C)C)[C@@H](C)O` [AM, Adrenomedullin], the “cAMP response to αCGRP, adrenomedullin (and weak amylin response)” value with SB2b cell line [1] was “Weak responses”. Besides, the “Peptides rank order of potency (human)” value is listed as “sCT ≥ hCT > AMY, αCGRP > AM, intermedin” in the assay on CTR; “sCT ≥ AMY ≥ αCGRP > intermedin ≥ hCT > AM” in the assay on AMY1 (CTR + RAMP1); “sCT ≥ AMY > αCGRP > intermedin ≥ hCT > AM” in the assay with AMY3 (CTR + RAMP3); “αCGRP > AM ≥ intermedin > AMY ≥ sCT” in the assay on CGRP (CLR + RAMP1); “AM > intermedin > α-CGRP, AMY > sCT” in the assay on AM1 (CLR + RAMP2); “AM ≥ intermedin ≥ α-CGRP > AMY > SCT” in the assay with AM2 (CLR + RAMP3).

Consider `CC(C)C[C@H](NC(=O)[C@H](CC(N)=O)NC(=O)[C@H](CC(N)=O)NC(=O)[C@H](CO)NC(=O)[C@H](CO)NC(=O)[C@H](CCCNC(=N)N)NC(=O)[C@@H](NC(=O)[C@H](CC(C)C)NC(=O)[C@H](Cc1ccccc1)NC(=O)[C@H](CC(N)=O)NC(=O)[C@H](C)NC(=O)[C@H](CC(C)C)NC(=O)[C@H](CCCNC(=N)N)NC(=O)[C@H](CCC(N)=O)NC(=O)[C@@H](NC(=O)[C@H](C)NC(=O)[C@@H]1CSSC[C@H](NC(=O)[C@@H](N)CCCCN)C(=O)N[C@@H](CC(N)=O)C(=O)N[C@@H]([C@@H](C)O)C(=O)N[C@@H](C)C(=O)N[C@@H]([C@@H](C)O)C(=O)N1)[C@@H](C)O)C(C)C)C(=O)NCC(=O)N1CCC[C@H]1C(=O)N[C@H](C(=O)N[C@@H](CC(C)C)C(=O)N1CCC[C@H]1C(=O)N1CCC[C@H]1C(=O)N[C@H](C(=O)N[C@@H](CC(N)=O)C(=O)N[C@H](C(=O)NCC(=O)N[C@@H](CO)C(=O)N[C@@H](CC(N)=O)C(=O)N[C@H](C(=O)N[C@@H](Cc1ccc(O)cc1)C(N)=O)[C@@H](C)O)C(C)C)[C@@H](C)O)C(C)C` [amylin, Amylin], for which the cAMP response entry with WK1 cell line [2], in the assay with JK2 cell line (agonist 10^-12-10^-6 M) and in the assay on PB1 cell line [3] (agonist 10^-12-10^-6 M) was “very weak response” each time. Moreover, the “pEC50, cAMP accumulation” value was 5.9 ± 0.5 in the assay with JK2 cell line (CTR agonists, 37 °C, S.E.M.) and 6.1 ± 0.5 with PB1 cell line [3] (CTR agonists, 37 °C, S.E.M.). In addition, the “cAMP response to αCGRP, adrenomedullin (and weak amylin response)” value in the assay with SB2b cell line [1] is reported as “Weak responses”. Further, the “intracellular Ca2+ mobilisation response” value is recorded as “unable to detect functional CTR response” with SB2b cell line [4]; “Absence of intracellular calcium mobilization response” in the assay with SB2b cell line [4] (listed as rAMY); “unable to detect functional CTR response” in the assay on WK1 cell line [5]; “Absence of intracellular calcium mobilization response” with WK1 cell line [5] (listed as rAMY); “unable to detect functional CTR response” with PB1 cell line [6]; “Absence of intracellular calcium mobilization response” with PB1 cell line [6] (listed as rAMY). For the same molecule, the metabolic reprogramming result in [7] is reported as “metabolic reprogramming (switch from glycolysis to oxidative phosphorylation)”. Moreover, the susceptibility to apoptosis result in [7] is given as “increased susceptibility to apoptosis”.

Amylin: the “Peptides rank order of potency (human)” value in the assay on CTR was “sCT ≥ hCT > AMY, αCGRP > AM, intermedin”; in the assay with AMY1 (CTR + RAMP1) it was “sCT ≥ AMY ≥ αCGRP > intermedin ≥ hCT > AM”; with AMY3 (CTR + RAMP3), “sCT ≥ AMY > αCGRP > intermedin ≥ hCT > AM”; with CGRP (CLR + RAMP1) it was “αCGRP > AM ≥ intermedin > AMY ≥ sCT”; in the assay on AM1 (CLR + RAMP2), “AM > intermedin > α-CGRP, AMY > sCT”; in the assay on AM2 (CLR + RAMP3), “AM ≥ intermedin ≥ α-CGRP > AMY > SCT”.

“Calcitonin (peptide) (CGNLSTCMLGTYTQDFNKFHTFPQTAIGVGAP; ends and bridges not checked; cysteine pairing not given here; UniProt P01258 85-116, looked up) [CT]”: in assay [8], the “growth of xenograft tumours” value is recorded as “inhibits the growth”. Also, in [9], the apoptosis entry is recorded as “inhibits apoptosis”; the “tumour growth and invasiveness” value was “stimulates tumour growth and invasiveness”.
